Reference: ChEMBL document CHEMBL1201862, “PubChem BioAssay data set” (2004)
Several values for one entry are separate records, joined by “and”; a condition that tells them apart may be missing. Equal entries are not always repeated. Activity calls are given as the source filed them.

Experiments:
[1] = target: Serine/threonine-protein phosphatase PP1-alpha catalytic subunit (Homo sapiens, UniProt P62136); experiment: inhibition of protein phosphatase 1 activity – biochemical, fluorescence, dose response (AID 2394)
Protein RecA = target: T1, Protein RecA (Mycobacterium tuberculosis, UniProt P9WHJ3); experiment: Fluorescence Cell-Free Homogeneous Dose Retest to Identify Inhibitors of RecA-Intein Splicing Activity. [Related pubchem assays (depositor defined):AID2097, AID2223, AID489010, AID492950]; assay type: functional
T1 sequence (P9WHJ3 whole entry): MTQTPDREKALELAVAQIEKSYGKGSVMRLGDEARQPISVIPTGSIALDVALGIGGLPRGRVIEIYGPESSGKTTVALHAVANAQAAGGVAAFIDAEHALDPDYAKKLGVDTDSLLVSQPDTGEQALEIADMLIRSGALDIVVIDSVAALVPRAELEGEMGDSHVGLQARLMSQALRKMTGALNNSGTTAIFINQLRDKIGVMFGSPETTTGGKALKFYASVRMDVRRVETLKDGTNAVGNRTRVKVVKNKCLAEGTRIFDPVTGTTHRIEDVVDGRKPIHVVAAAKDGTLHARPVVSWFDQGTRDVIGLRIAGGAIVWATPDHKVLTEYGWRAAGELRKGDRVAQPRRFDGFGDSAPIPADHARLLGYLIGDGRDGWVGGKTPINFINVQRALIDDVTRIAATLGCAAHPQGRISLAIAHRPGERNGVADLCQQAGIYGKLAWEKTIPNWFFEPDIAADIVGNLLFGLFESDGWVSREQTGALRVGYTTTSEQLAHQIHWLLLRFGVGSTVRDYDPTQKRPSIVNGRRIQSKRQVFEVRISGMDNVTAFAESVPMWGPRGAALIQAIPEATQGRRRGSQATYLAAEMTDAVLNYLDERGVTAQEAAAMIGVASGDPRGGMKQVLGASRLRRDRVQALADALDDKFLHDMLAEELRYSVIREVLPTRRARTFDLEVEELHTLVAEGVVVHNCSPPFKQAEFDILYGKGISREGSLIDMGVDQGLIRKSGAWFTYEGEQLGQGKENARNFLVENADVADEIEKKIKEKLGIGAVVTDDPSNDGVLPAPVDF

[2] = target: T2, Replicative DNA helicase DnaB (Mycobacterium tuberculosis, UniProt P9WMR3); experiment: DnaB intein splicing inhibitors, dose response, biochemical, cell-free fluorescence (AID 449749); assay type: functional
T2 sequence (P9WMR3 whole entry): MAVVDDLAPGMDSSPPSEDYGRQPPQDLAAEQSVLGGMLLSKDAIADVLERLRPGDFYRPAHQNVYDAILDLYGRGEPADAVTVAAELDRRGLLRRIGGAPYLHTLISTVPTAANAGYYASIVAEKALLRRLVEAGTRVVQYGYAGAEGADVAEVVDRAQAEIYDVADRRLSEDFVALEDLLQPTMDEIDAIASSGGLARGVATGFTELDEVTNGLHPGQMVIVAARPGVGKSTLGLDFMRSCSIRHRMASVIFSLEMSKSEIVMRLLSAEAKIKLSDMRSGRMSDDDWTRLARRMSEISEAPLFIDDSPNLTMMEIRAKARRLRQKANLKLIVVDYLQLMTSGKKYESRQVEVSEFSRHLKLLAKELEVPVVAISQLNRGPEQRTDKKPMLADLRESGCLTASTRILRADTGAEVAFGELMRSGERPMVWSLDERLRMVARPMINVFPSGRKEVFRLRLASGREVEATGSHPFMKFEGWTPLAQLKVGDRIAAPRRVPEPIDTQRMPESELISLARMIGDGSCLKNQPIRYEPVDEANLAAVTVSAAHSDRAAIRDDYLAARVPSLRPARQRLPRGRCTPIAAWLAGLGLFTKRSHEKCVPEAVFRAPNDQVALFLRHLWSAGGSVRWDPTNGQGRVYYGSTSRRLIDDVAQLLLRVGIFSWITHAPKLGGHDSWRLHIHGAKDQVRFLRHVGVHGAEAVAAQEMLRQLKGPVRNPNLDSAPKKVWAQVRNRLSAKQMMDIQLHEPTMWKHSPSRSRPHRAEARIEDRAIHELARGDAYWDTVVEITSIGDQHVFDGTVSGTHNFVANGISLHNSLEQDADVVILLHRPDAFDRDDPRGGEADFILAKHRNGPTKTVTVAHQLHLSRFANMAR

[3] = target: Serine/threonine-protein phosphatase (Homo sapiens, UniProt Q9BPW0); experiment: inhibition of protein phosphatase 5 activity – biochemical, fluorescence, dose response (AID 2395)
Nonstructural protein 1 = Nonstructural protein 1 (Influenza A virus, UniProt Q194T2); assay type: functional, Influenza A virus (A/California/07/2009(H1N1))
[4] = target: T3, Apoptotic protease-activating factor 1 (Homo sapiens, UniProt O14727); assay type: functional
T3 sequence (O14727 whole entry): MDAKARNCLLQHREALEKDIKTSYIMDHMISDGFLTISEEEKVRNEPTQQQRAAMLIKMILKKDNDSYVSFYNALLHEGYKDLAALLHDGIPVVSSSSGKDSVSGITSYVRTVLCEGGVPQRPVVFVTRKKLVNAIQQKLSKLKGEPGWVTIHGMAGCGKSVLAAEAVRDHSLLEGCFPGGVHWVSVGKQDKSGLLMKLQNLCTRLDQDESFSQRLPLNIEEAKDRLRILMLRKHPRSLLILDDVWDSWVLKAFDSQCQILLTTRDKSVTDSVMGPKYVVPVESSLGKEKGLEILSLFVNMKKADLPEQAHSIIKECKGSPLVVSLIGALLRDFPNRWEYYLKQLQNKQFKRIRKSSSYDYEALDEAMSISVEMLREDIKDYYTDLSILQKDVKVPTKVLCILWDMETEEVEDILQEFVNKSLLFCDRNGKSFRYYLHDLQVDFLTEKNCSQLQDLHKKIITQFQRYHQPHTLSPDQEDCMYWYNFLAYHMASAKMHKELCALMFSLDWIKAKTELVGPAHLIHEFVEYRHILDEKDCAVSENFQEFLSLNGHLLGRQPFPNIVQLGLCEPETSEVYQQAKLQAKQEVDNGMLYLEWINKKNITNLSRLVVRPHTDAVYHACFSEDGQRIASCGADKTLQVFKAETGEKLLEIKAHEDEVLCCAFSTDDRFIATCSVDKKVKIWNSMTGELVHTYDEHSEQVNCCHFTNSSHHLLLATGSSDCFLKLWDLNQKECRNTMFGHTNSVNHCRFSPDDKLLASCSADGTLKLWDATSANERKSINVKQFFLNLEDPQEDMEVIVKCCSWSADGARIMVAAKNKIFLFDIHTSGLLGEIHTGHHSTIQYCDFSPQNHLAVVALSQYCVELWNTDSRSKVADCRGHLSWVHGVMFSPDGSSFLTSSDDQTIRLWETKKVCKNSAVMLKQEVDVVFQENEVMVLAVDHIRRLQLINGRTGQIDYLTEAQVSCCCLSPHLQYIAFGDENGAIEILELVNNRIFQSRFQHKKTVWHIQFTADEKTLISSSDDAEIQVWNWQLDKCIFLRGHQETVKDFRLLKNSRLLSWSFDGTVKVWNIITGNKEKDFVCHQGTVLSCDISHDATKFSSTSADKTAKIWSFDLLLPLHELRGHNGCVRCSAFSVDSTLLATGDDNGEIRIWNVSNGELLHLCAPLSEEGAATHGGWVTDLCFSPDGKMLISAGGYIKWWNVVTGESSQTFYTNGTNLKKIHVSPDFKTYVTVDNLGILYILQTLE

[5] = viability of uninfected HEp-2 cells – cell-based, HTS, cytotoxicity control for RSV inhibitor project, dose response (AID 2410); assay type: functional; conditions: human respiratory syncytial virus
[6] = Luminescent dose response cell-based high throughput screening assay for inhibitors of the Janus kinase 2 mutant JAK2V617F. [Related pubchem assays: 1446 (Primary screen.), 1521 (Confirmation assay.), 1486 (Counter screen.)]; assay type: functional
[7] = microbe, parasite or virus in culture; assay type: functional; conditions: Mycobacterium tuberculosis
[8] = cytotoxicity toward HCT116 cells – cell-based, CellTiter-Glo luminescence, IC50, dose response (AID 1117332); assay type: functional; conditions: HCT-116
[9] = CellTiter-Glo luminescence survival assay, SW480 colon tumor line, concentration-response curve, half-maximal inhibitory concentration (AID 1117338); assay type: functional
Fibrinogen beta chain [10] = target: T4, Fibrinogen beta chain (Homo sapiens, UniProt P02675); experiment: Fluorescence polarization-based biochemical high throughput dose response assay to identify inhibitors that disrupt the binding of a cyclic peptide (Tn6) to the fibrin proteolytic product D-Dimer and fragment E complex [DD(E )].
T4 sequence (P02675 whole entry): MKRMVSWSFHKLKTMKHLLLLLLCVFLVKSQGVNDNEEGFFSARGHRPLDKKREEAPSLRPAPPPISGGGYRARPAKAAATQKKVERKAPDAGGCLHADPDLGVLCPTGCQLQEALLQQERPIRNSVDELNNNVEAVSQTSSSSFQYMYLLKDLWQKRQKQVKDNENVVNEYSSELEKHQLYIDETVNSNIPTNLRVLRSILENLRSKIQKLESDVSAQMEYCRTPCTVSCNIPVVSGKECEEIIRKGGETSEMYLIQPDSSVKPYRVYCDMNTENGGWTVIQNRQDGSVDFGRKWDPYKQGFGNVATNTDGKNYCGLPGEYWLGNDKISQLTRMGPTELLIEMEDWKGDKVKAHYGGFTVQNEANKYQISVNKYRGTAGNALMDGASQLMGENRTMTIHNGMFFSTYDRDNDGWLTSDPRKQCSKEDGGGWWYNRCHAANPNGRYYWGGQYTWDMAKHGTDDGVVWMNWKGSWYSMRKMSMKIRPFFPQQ

[11] = Potency on glucagon-like peptide 1 release, dose-response in NCI-H716 cell line, half maximal inhibitory concentration (AID 1117344); assay type: functional, cell-based
[12] = SNU-C1 cell viability reduction, dose response, CellTiter-Glo luminescence (AID 1117323); assay type: functional, cell-based
[13] = Reduced DLD-1 viability, concentration-response, CellTiter-Glo luminescence (AID 1117352); assay type: functional
[14] = glucagon-like peptide-1 release potency in STC-1, concentration-response, half-maximal inhibitory concentration in the STC-1 line (AID 1117345); assay type: functional, cell-based
Fibrinogen beta chain [15] = target: T4, Fibrinogen beta chain; experiment: Fluorescence polarization-based biochemical high throughput dose response assay to identify inhibitors that disrupt the binding of a cyclic peptide (Tn7) to the fibrin proteolytic product D-Dimer and fragment E complex [DD(E )].
[16] = HGIII-sPLA2 enzyme inhibition potency – biochemical, QFRET, IC50, dose response (AID 743457);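 further: green fluorescence rise as the enzyme cleaves BODIPY PC-A2 in liposomes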
Cytochrome P450 2D6 = Cytochrome P450 2D6 (Homo sapiens, UniProt P10635);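 further: CYP2D6 member of a cytochrome P450 panel assay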
[17] = cytotoxicity toward Colo320 cells – cell-based, CellTiter-Glo luminescence, IC50, dose response (AID 1117334); assay type: functional; conditions: COLO 320
[18] = RKO cell viability reduction, dose response, CellTiter-Glo luminescence (AID 1117322); assay type: functional
H4 = experiment: Luminescence Cell-Based Dose Response HTS to Identify Activators of 5'UTR Stem-Loop Driven Prion Protein mRNA Translation in H4 Neuroglioblastoma Cells. [Related pubchem assays: 1829 (Project Summary), 1814 (Primary HTS)]; assay type: functional; conditions: Homo sapiens
[19] = Luminescence Cell-Based Dose Response HTS to Identify Activators of Luciferase Translation or Activity in H4 […] Cells. [Related pubchem assays: 1829 (Project Summary), 1814 (Primary HTS)]; assay type: functional
[20] = Luminescence Cell-Based Dose Confirmation HTS to Identify Activators of 5'UTR Stem-Loop Driven Alpha-Synuclein mRNA Translation in H4 Neuroglioblastoma Cells. [Related pubchem assays: 1829 (Project Summary), 1814 (Primary HTS)]; assay type: functional

Cytochrome P450 2D6, sequence (P10635 whole entry): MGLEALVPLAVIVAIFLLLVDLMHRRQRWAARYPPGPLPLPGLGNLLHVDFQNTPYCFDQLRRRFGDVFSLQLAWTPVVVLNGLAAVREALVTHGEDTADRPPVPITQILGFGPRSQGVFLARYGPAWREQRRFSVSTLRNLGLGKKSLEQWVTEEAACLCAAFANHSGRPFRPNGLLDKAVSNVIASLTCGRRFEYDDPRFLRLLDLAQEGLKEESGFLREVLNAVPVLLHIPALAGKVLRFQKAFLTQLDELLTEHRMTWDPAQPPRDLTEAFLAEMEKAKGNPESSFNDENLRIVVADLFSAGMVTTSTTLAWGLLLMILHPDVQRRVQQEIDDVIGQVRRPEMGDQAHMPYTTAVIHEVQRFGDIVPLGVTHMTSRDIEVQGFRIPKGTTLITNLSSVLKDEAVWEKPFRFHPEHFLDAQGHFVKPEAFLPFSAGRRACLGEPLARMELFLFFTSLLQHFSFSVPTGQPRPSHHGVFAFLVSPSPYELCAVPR
Nonstructural protein 1, sequence (Q194T2 whole entry): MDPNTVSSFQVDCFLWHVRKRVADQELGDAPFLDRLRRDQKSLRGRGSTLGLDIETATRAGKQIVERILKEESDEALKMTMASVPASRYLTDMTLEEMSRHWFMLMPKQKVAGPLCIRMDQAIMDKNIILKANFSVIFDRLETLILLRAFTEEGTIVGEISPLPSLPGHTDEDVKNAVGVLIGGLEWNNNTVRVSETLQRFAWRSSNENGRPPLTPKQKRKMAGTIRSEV
Serine/threonine-protein phosphatase, sequence (Q9BPW0 whole entry): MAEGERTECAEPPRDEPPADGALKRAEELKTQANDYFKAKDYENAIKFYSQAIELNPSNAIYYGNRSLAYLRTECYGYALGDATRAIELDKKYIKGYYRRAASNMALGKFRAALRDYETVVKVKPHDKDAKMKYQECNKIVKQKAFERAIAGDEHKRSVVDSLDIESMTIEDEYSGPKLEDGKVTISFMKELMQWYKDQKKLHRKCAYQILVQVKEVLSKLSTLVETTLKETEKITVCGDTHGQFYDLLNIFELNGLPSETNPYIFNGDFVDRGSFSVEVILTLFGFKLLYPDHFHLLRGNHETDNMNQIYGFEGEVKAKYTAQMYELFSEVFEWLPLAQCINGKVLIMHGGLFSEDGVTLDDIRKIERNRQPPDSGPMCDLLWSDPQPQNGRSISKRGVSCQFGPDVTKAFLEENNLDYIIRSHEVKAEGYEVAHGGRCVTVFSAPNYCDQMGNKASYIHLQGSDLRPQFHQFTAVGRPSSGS
Serine/threonine-protein phosphatase PP1-alpha catalytic subunit, sequence (P62136 whole entry): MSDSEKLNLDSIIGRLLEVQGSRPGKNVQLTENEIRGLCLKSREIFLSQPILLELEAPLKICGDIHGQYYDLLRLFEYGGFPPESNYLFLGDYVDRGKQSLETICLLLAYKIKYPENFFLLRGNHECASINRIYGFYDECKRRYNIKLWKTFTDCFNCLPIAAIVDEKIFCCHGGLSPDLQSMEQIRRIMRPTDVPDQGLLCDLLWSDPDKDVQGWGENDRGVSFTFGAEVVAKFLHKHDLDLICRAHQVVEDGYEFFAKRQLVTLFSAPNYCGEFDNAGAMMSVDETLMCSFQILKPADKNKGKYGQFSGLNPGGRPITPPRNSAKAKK

Which results are given for `Cc1ccc(NC2=C(N3CCOCC3)C(=O)c3ccccc3C2=O)cc1`?
IC50 [1]: > 67 µM (not active); EC50 (Protein RecA): 15.7 µM (active); AC50 [2]: 10.7 µM (active); IC50 [3]: 20.9 µM (not active); IC50 (Nonstructural protein 1): 7.74 µM (active); IC50 [4]: 19.4 µM (active)

For `O=C(CCl)NCc1cc(-c2ccc(Cl)cc2)no1`, which CC50 [5] is on record?
The CC50 was 4.01 µM (active).

What about the IC50 [6] of the same compound?
Its IC50 is 1.23 µM (active).

And the CC50 [7]?
Its CC50 is 9.8 µM (active).

For `C[n+]1cc2c3c(ccc2c2ccc4cc5c(cc4c21)OCO5)OCO3`, which IC50 [8] is on record?
The IC50 was 0.525 µM (active).

And the IC50 [9]?
Its IC50 is 0.379 µM (active).

What about the IC50 (Fibrinogen beta chain [10]) of the same compound?
Its IC50 is 24.2 µM (inactive).

What about the IC50 [11] of the same compound?
The IC50 was > 40 µM (inactive).

What about the IC50 [12] of the same compound?
Its IC50 is 0.316 µM (active).

And the IC50 [13]?
Its IC50 is 0.576 µM (active).

What about the IC50 [14] of the same compound?
Its IC50 is > 40 µM (inactive).

What about the IC50 (Fibrinogen beta chain [15]) of the same compound?
The IC50 was > 83.1 µM (inactive).

And the IC50 [16]?
Its IC50 is 51.8 µM (inactive).

And the AC50 (Cytochrome P450 2D6)?
The AC50 was 31.6 µM (inconclusive) and 7.94 µM (inconclusive).

What about the IC50 [17] of the same compound?
Its IC50 is 0.35 µM (active).

And the IC50 [18]?
Its IC50 is 0.265 µM (active).

With `O=C1C(c2ccccc2)=[N+]([O-])c2ccccc21` as the compound, how does the IC50 [1] read?
The IC50 was 2.67 µM (active).

What about the EC50 (H4) of the same compound?
The EC50 was 20 µM (active).

And the IC50 [3]?
Its IC50 is 10.3 µM (not active).

And the EC50 [19]?
Its EC50 is 36.4 µM (active).

And the IC50 (Nonstructural protein 1)?
The IC50 was 45.5 µM (active).

And the IC50 [4]?
The IC50 was 5.8 µM (active).

What about the EC50 [20] of the same compound?
The EC50 was 12.7 µM (active).
